For assay [1], the target named is Cyclin-dependent kinase 2 (Homo sapiens, UniProt P24941). The experiment in a line: Inhibition of CDK2 (unknown origin) expressed in baculovirus infected Sf9 cells in presence of [gamma-33p]-ATP and ATP.
Assay [2] addresses Cyclin-dependent kinase 5/p25. The experiment in a line: Inhibition of CDK5/p25 (unknown origin).
The target of assay [3] is Cyclin-dependent kinase 2/cyclin A. The experiment in a line: Inhibition of CDK2/cyclin A (unknown origin).

Broadly, the IC50 is the concentration needed to halve the response being measured. For `CC(C)c1n[nH]c2c(NCc3ccc(-c4ccccn4)cc3)nc(NCC(C)(C)O)nc12`, in assay [1], the IC50 is 9 nM.

`Cc1cc(S(=O)(=O)NCCOCCOCCOCCOCCNc2cccc3c2C(=O)N(C2CCC(=O)NC2=O)C3=O)ccc1Nc1ncc(Br)c(Nc2cccc(F)c2C(N)=O)n1` (stereo not drawn) showed an IC50 in assay [2] of 6.8 nM. In the case of `O=C(Nc1csc(Cc2c(Cl)cccc2Cl)n1)NN1CCOCC1` [1-[2-(2,6-Dichloro-benzyl)-thiazol-4-yl]-3-morpholin-4-yl-urea], half-maximal inhibition in assay [3] (IC50) was put at 10000 nM.

These data come from BindingDB's records for doi:10.1021/acs.jmedchem.3c00566 (Sichuan University, 2023).
